Laboratory results from publication PMC12389534, “Unlocking Therapeutic Potential of Novel Thieno-Oxazepine Hybrids as Multi-Target Inhibitors of AChE/BChE and Evaluation Against Alzheimer’s Disease: In Vivo, In Vitro, Histopathological, and Docking Studies” (Pharmaceuticals, 2025).
Entries after “also recorded” stand apart in the source; their conditions may differ.

Legend:
[1] = tested on: AlCl3-induced AD rat model; assay: Morris water maze (MWM) test in AlCl3-induced AD rats; type: in vivo; details: for Learning (s): escape latency; for Learning (s) / Memory (s): mean ± SE, n = 6; for Memory (s): time spent in target quadrant
Protocol: (§1) All procedures were conducted conforming to the applicable National Institutes of Health standards and regulations for the Care and Use of Laboratory Animals. In this experiment, adult male Dawley rats in excellent condition weighing between 300 and 320 g were used. The animals were acquired from the Nile Company for Pharmaceuticals and Chemical Industries (Cairo, Egypt). They were placed in a controlled laboratory setting with unrestricted access to water, a temperature range of 24 to 26 °C, and 12 h a light–dark cycle. Three rats per cage were housed in polycarbonate cages that were individually packed with paper and encased with stainless steel wire.
Spatial learning and memory were inspected using the MWM test. Tap water was poured into a 150 cm diameter by 60 cm high circular water tank until it reached a depth of 30 cm (25 ± 2 °C). To make the water […], non-toxic white dye was applied. The east, west, north, and south quadrants of the pool were essentially separated into four equal sections. At a specific spot in the middle of one quadrant, an escape platform with a diameter of 10 cm was submerged 2 cm below the water’s surface. The platform stood in the exact same quadrant throughout the testing. The rats’ swimming route was recorded by a video camera situated above the pool. From a designated spot in each quadrant, each rat was submerged in the water with its back turned to the pool wall, and it was then left to swim to the platform. The rats received training sessions every day for three days in a row, with four trials conducted in each session. Before the next trial began, the animals were kept a maximum of 60 s to explore the hidden platform. After that, they were permitted to relax on it for 20 s. The rat was positioned gently on the platform and allowed 20 s to rest if it took longer than 60 s to locate it. The time taken to find the platform, or the escape latency, was documented. In order to do a probing test on the fourth day, the platform was detached away, and the rats were given 60 s to swim liberally. The time spent in the assigned quadrant was counted.

[2] = tested on: AlCl3-induced AD rat model; assay: Y-maze SAP test in AlCl3-induced AD rats; type: in vivo; details: for SAP%: mean ± SE, n = 6
Protocol: as §1
One kind of short-term memory that SAP can represent is spatial working memory. Three arms, designated A, B, or C, were employed in a black hardwood Y-maze with a symmetrical triangular core space. Rats were briefly positioned at the edge of one arm and given 8 min to freely navigate around the maze. When the rat’s rear paws were fully inside the arm, the entries were counted. The following formula was used to determine SAP based on the total number of arm entries and alternations: SAP (%) = [number of alternations/(total arm entries − 2)] × 100 [94].

Amyloid-β = assay: Brain amyloid-β level (ELISA); type: in vivo, rat; parameters: reduction of β-amyloid levels: concentration or dose not given beside the values; details: AlCl3-induced AD rats; for Amyloid-β (ng/g Tissue): brain, mean ± SE, n = 6
Protocol: (§2) The brain tissues of the rats were removed and rigorously washed in isotonic saline 24 h after they were euthanized following the last behavioral test. For histological investigation, four brains per group were preserved for the whole night in 10% neutral buffered formalin. The remaining six brains were split into two sections each. In order to create a 10% homogenate (w/v), the first component was instantaneously homogenized using an ice-cold solution that included 300 mM sucrose and 50 mM Tris-HCl (pH 7.4). The homogenate was centrifuged at 1800× g for 10 min at 4 °C for biochemical tests, and the supernatant was thereafter kept at −20 °C. The second portion was set aside for use in RT-PCR analysis at −80 °C [94].
See Supplementary Information.

[3] = tested on: brain tissue (CC, ST, FD, SN neurons); assay: Histopathological examination of brain tissue; type: in vivo, rat; details: brain sections, AlCl3-induced AD rats; for histopathological finding in CC, ST, FD and SN (NP = nuclear pyknosis): H&E
Protocol: as §2
Brain tissue samples were stationed in 10% formalin for 24 h, washed with water, and then serially diluted with alcohol to induce dehydration. After being submerged in paraffin, the specimens were cut into segments that were 4 µm thick using a microtome.

AChE = target: T1, AChE (Homo sapiens, UniProt P22303); assay: biochemical; details: colorimetric kit, 412 nm
T1 construct: purchased BioVision K197-100
Protocol: All newly created compounds were subjected to an AChE enzyme inhibitory screening. This was performed with the Colorimetric AChE Inhibitor Screening Kit (BioVision Catalog # K197-100). The 96-well assay kit provides a rapid, simple, and reliable way to screen for AChE inhibitors in large quantities. […] A completely transparent 96-well plate with a flat bottom was loaded with 10 µL of test inhibitors that were diluted (20×). […] A measure of 10 μL of diluted AChE was applied to each well that contained compounds, inhibitor control, and solvent control. […] Measures of 25 μL of AChE assay buffer, 5 μL of probe mix, and 10 μL of diluted AChE substrate were mixed to create the reaction mix. The reaction mix was mixed with the compound, enzyme control, and inhibitor control. […] The IC50 was calculated using nonlinear regression analysis using the response–concentration (log) curve.

T1 sequence (P22303 32-614): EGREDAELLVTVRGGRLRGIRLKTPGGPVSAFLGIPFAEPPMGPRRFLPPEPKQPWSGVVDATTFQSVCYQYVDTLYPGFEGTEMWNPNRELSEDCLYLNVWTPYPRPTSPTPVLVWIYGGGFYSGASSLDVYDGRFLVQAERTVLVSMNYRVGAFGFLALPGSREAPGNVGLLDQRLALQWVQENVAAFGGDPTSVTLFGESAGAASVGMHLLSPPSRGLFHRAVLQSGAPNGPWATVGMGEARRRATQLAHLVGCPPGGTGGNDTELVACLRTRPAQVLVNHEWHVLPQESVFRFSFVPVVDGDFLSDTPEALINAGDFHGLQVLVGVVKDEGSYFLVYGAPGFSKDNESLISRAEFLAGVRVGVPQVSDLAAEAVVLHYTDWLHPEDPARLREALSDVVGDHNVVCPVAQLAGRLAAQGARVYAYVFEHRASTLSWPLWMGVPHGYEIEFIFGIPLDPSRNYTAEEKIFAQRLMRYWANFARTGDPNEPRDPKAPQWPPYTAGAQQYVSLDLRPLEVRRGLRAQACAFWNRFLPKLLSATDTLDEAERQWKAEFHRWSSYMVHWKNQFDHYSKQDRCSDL

CCOC(=O)c1c(O)sc2c1CCCCC2 [Compound 2, Ethyl 2-hydroxy-5,6,7,8-tetrahydro-4H-cyclohepta[b]thiophene-3-carboxylate]
reduction in escape latency [1]: 32.2% | Learning (s) [1]: 33.33 ± 0.8 ^abc s | Memory (s) [1]: 24.17 ± 1.22 ^abc s | increase in SAP% [2]: 14.6% | SAP% [2]: 62.33 ± 1.05 ^abc % | reduction of β-amyloid levels (Amyloid-β): 30.2% | Amyloid-β (ng/g Tissue) (Amyloid-β): 19.52 ± 0.15 ^abc ng/g Tissue | histopathological finding in CC, ST, FD and SN (NP = nuclear pyknosis) [3]: moderate NP in CC, FD, and SN, in addition to normal histology in ST; also recorded: significant NP in the CC, FD, and SN, whereas the striatal neurons’ histological structures remained normal | IC50 (AChE): 1.1 ± 0.04 µM

CCOC(=O)c1c(OC(=O)CCl)sc2c1CCCCC2 [Compound 4, Ethyl 2-(2-chloroacetoxy)-5,6,7,8-tetrahydro-4H-cyclohepta[b]thiophene-3-carboxylate]
reduction in escape latency [1]: 35.9% | Learning (s) [1]: 31.5 ± 1.48 ^abc s | Memory (s) [1]: 26.67 ± 1.54 ^abc s | SAP% [2]: 72.67 ± 1.02 ^abc % | reduction of β-amyloid levels (Amyloid-β): 38.9% | Amyloid-β (ng/g Tissue) (Amyloid-β): 17.05 ± 0.2 ^abc ng/g Tissue | histopathological finding in CC, ST, FD and SN (NP = nuclear pyknosis) [3]: moderate NP in CC and SN, a moderate number of necrotic neurons in FD, as well as normal histology of ST neurons; also recorded: significant NP in the CC, FD, and SN, whereas the striatal neurons’ histological structures remained normal | IC50 (AChE): 41.2 ± 1.42 µM

O=C1CN(c2ccccc2)C(=O)c2c(sc3c2CCCCC3)O1 [Compound 11, 4-Phenyl-3,4,7,8,9,10-hexahydro-6H-cyclohepta[4,5]thieno[3,2-f][1,4]oxazepine-2,5-dione]
increase in quadrant residence time [1]: 3.5 times | Learning (s) [1]: 25.17 ± 1.25 ^abc s | Memory (s) [1]: 35.17 ± 0.95 ^abc s | increase in SAP% [2]: 22% | SAP% [2]: 69.67 ± 1.69 ^abc % | reduction of β-amyloid levels (Amyloid-β): 48.9% | Amyloid-β (ng/g Tissue) (Amyloid-β): 14.25 ± 0.16 ^abc ng/g Tissue | histopathological finding in CC, ST, FD and SN (NP = nuclear pyknosis) [3]: mild NP in neurons in CC and moderate NP in ST, FD, and SN; also recorded: minor NP in the CC and significant NP in FD, ST, and SN | IC50 (AChE): 2.67 ± 0.09 µM

O=C1CN(c2ccc(Cl)cc2)C(=O)c2c(sc3c2CCCCC3)O1 [Compound 12, 4-(4-Chlorophenyl)-3,4,7,8,9,10-hexahydro-6H-cyclohepta[4,5]thieno[3,2-f][1,4]oxazepine-2,5-dione]
increase in quadrant residence time [1]: 3.7 times | Learning (s) [1]: 23.5 ± 1.23 ^abc s | Memory (s) [1]: 37.17 ± 1.52 ^abc s | SAP% [2]: 76.5 ± 1.52 ^abc % | reduction of β-amyloid levels (Amyloid-β): 62.3% | Amyloid-β (ng/g Tissue) (Amyloid-β): 10.51 ± 0.1 ^abc ng/g Tissue | histopathological finding in CC, ST, FD and SN (NP = nuclear pyknosis) [3]: normal histology in CC and FD, as well as mild NP in ST and SN | histology of CC neurons and FD [3]: normal histological structures | pyknosis in ST and SN neurons [3]: minimal pyknosis | IC50 (AChE): 10.9 ± 0.38 µM

N#Cc1ccc(N2CC(=O)Oc3sc4c(c3C2=O)CCCCC4)cc1 [Compound 13, 4-(2,5-Dioxo-2,3,7,8,9,10-hexahydro-6H-cyclohepta[4,5]thieno[3,2-f][1,4]oxazepin-4(5H)-yl)benzonitrile]
increase in quadrant residence time [1]: about 4.1 times | reduction in escape latency [1]: 71.2% | Learning (s) [1]: 14.17 ± 0.95 ^abc s | Memory (s) [1]: 40.50 ± 2.62 ^abc s | increase in SAP% [2]: ~35% | SAP% [2]: 82.67 ± 1.28 ^abc % | reduction of β-amyloid levels (Amyloid-β): 67.6% | Amyloid-β (ng/g Tissue) (Amyloid-β): 9.04 ± 0.9 ^abc ng/g Tissue | histopathological finding in CC, ST, FD and SN (NP = nuclear pyknosis) [3]: normal histology of CC and FD, and moderate NP in ST and SN | histology of CC neurons and FD [3]: normal histological structures | pyknosis in ST and SN neurons [3]: moderate pyknosis | IC50 (AChE): 5.04 ± 0.17 µM

CCOc1ccc(N2CC(=O)Oc3sc4c(c3C2=O)CCCCC4)cc1 [Compound 14, 4-(4-Ethoxyphenyl)-3,4,7,8,9,10-hexahydro-6H-cyclohepta[4,5]thieno[3,2-f][1,4]oxazepine-2,5-dione]
Learning (s) [1]: 21 ± 1.13 ^abc s | Memory (s) [1]: 29.50 ± 2 ^abc s | SAP% [2]: 77.5 ± 2.11 ^abc % | reduction of β-amyloid levels (Amyloid-β): 58.4% | Amyloid-β (ng/g Tissue) (Amyloid-β): 11.66 ± 0.17 ^abc ng/g Tissue | histopathological finding in CC, ST, FD and SN (NP = nuclear pyknosis) [3]: moderate NP in CC, FD, and SN, normal histology of neurons in ST; also recorded: significant pyknosis | IC50 (AChE): 0.39 ± 0.01 µM

O=C1CN(c2ccc(O)cc2)C(=O)c2c(sc3c2CCCCC3)O1 [Compound 15, 4-(4-Hydroxyphenyl)-3,4,7,8,9,10-hexahydro-6H-cyclohepta[4,5]thieno[3,2-f][1,4]oxa-zepine-2,5-dione]
increase in quadrant residence time [1]: ~4.3 times | reduction in escape latency [1]: 61% | Learning (s) [1]: 19.17 ± 1.01 ^abc s | Memory (s) [1]: 42.50 ± 1.06 ^abc s | increase in SAP% [2]: ~34.8% | SAP% [2]: 82.5 ± 0.89 ^abc % | reduction of β-amyloid levels (Amyloid-β): 73.2% | Amyloid-β (ng/g Tissue) (Amyloid-β): 7.46 ± 0.9 ^abc ng/g Tissue | histopathological finding in CC, ST, FD and SN (NP = nuclear pyknosis) [3]: normal histology of CC and FD, and moderate NP in ST and SN | histology of CC neurons and FD [3]: normal histological structures | pyknosis in ST and SN neurons [3]: moderate pyknosis | IC50 (AChE): 1.59 ± 0.06 µM

COc1ccc(N2CC(=O)Oc3sc4c(c3C2=O)CCCCC4)cc1 [Compound 16, 4-(4-Methoxyphenyl)-3,4,7,8,9,10-hexahydro-6H-cyclohepta[4,5]thieno[3,2-f][1,4]oxa-zepine-2,5-dione]
increase in quadrant residence time [1]: 3.6 times | Learning (s) [1]: 26.83 ± 1.2 ^abc s | Memory (s) [1]: 36.00 ± 1.27 ^abc s | SAP% [2]: 71.67 ± 1.15 ^abc % | reduction of β-amyloid levels (Amyloid-β): 55.4% | Amyloid-β (ng/g Tissue) (Amyloid-β): 12.44 ± 0.14 ^abc ng/g Tissue | histopathological finding in CC, ST, FD and SN (NP = nuclear pyknosis) [3]: mild NP in neurons in CC, as well as moderate NP in neurons of ST, FD, and SN; also recorded: minor NP in the CC and significant NP in FD, ST, and SN | IC50 (AChE): 0.76 ± 0.03 µM
